Experimental data taken from US10138255B2, “Piperazine derivatives as HIV protease inhibitors” (Merck Sharp & Dohme Corp., priority 2014, dated 2018).

system: HIV-1 (H9IIIB strain); test: Cell-Based HIV Infection Assay Using a Reporter (MT4-GFP cells); conditions: Human immunodeficiency virus 1, inflection point (IP) of viral growth inhibition; MT4-GFP cells infected with HIV-1 H9IIIB; 50% normal human serum; mean of at least two independent experiments; read-out: Cell Based IP (50% NHS)
Method in brief: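 MT4-GFP cells (HIV LTR-driven GFP) bulk-infected with HIV-1 H9IIIB at low MOI for 24 h, washed, then exposed to compounds in RPMI plus 50% normal human serum, 0.4% DMSO. Infected cells counted at 24 and 48 h; R0 = 48 h/24 h ratio, inhibition normalised to DMSO and triple-drug control; IP from 4-parameter fit.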

Question: With `CC(C)[C@H](c1ccc(Cl)cc1)[C@H](N)C(=O)N[C@H]1CCCC[C@@H]1CC[C@H]1CN[C@@H]2CCCS(=O)(=O)N1C2` [Example 161, (βR)-4-chloro-N-[(1S,2R)-2-{2-[(6R,9S)-2,2-dioxido-2-thia-1,7-diazabicyclo[4.3.1]dec-9-yl]ethyl}cyclohexyl]-β-(1-methylethyl)-L-phenylalaninamide] as the molecule, how does the EC50 read?
Answer: The EC50 was 78 nM.

Question: Which EC50 does the source give for `COC(=O)N[C@H](C(=O)N[C@H]1CCCC[C@@H]1CC[C@H]1CN[C@@H]2CCCS(=O)(=O)N1C2)[C@H](c1cncc(C(F)(F)F)c1)c1ccc(Cl)c(F)c1` [Example 97, methyl {(1S,2S)-2-(4-chloro-3-fluorophenyl)-1-{[(1S,2R)-2-{2-[(6R,9S)-2,2-dioxido-2-thia-1,7-diazabicyclo[4.3.1]dec-9-yl]ethyl}cyclohexyl]carbamoyl}-2-[5-(trifluoromethyl)pyridin-3-yl]ethyl}carbamate] here?
Answer: Its EC50 is 19 nM.

Question: For `COC(=O)N[C@H](C(=O)Nc1cccc(F)c1CC[C@H]1CN[C@@H]2CCC(C)(C)S(=O)(=O)N1C2)[C@@H](c1ccc(F)cc1)[C@H]1C[C@@H](C)O[C@@H](C)C1` [Example 102, methyl {(1S)-2-[(2-{2-[(6R,9S)-3,3-dimethyl-2,2-dioxido-2-thia-1,7-diazabicyclo[4.3.1]dec-9-yl]ethyl}-3-fluorophenyl)amino]-1-[(R)-[(2R,4r,6S)-2,6-dimethyltetrahydro-2H-pyran-4-yl](4-fluorophenyl)methyl]-2-oxoethyl}carbamate], which EC50 is on record?
Answer: Its EC50 is 32 nM.

Question: `O=C(C[C@@H](c1ccc(Cl)c(F)c1)N1CCOCC1)N[C@H]1CCC[C@@H]1CC[C@H]1CN[C@@H]2CCCS(=O)(=O)N1C2` [Example 75, (3S)-3-(4-chloro-3-fluorophenyl)-N-[(1S,2R)-2-{2-[(6R,9S)-2,2-dioxido-2-thia-1,7-diazabicyclo[4.3.1]dec-9-yl]ethyl}cyclopentyl]-3-morpholin-4-ylpropanamide] was tested. Which EC50 did it give?
Answer: The EC50 was 110 nM.

Question: How did the EC50 turn out when `N[C@H](C(=O)Nc1cccc(F)c1CCC1CNC2CCCS(=O)(=O)N1C2)[C@@H](c1ccc(F)cc1)C12CC(C1)C2` (stereo partly drawn) [Example 86, (βR)-β-bicyclo[1.1.1]pent-1-yl-N-{2-[2-(2,2-dioxido-2-thia-1,7-diazabicyclo[4.3.1]dec-9-yl)ethyl]-3-fluorophenyl}-4-fluoro-L-phenylalaninamide] was run?
Answer: Its EC50 is 340 nM.

Question: `CC(C)Oc1ccc([C@H](c2ccc(Cl)cc2)[C@H](N)C(=O)Nc2cccc(F)c2CCC2CNC3CCCS(=O)(=O)N2C3)cn1` (stereo partly drawn) [Example 11, (βS)-4-Chloro-N-{2-[2-(2,2-dioxido-2-thia-1,7-diazabicyclo[4.3.1]dec-9-yl)ethyl]-3-fluorophenyl}-β-[6-(1-methylethoxy)pyridin-3-yl]-L-phenylalaninamide] was tested. Which EC50 did it give?
Answer: The EC50 was 4 nM.

Question: With `COC(=O)N[C@H](C(=O)Nc1cccc(F)c1CCC1CNC2CCCS(=O)(=O)N1C2)[C@H](CCC1CCOCC1)c1ccc(Cl)c(F)c1` (stereo partly drawn) [Example 9, Methyl [(1S,2R)-2-(4-chloro-3-fluorophenyl)-1-({2-[2-(2,2-dioxido-2-thia-1,7-diazabicyclo[4.3.1]dec-9-yl)ethyl]-3-fluorophenyl}carbamoyl)-4-(tetrahydro-2H-pyran-4-yl)butyl]carbamate] as the molecule, how does the EC50 read?
Answer: The EC50 was 7.1 nM.

Question: With `N[C@H](C(=O)Nc1cccc(F)c1CCC1CNC2CCCS(=O)(=O)N1C2)[C@@H](c1ccc(Cl)cc1)C1CCOC(CC(F)(F)F)C1` (stereo partly drawn) [Example 163, (βR)-4-chloro-N-{2-[2-(2,2-dioxido-2-thia-1,7-diazabicyclo[4.3.1]dec-9-yl)ethyl]-3-fluorophenyl}-β-[2-(2,2,2-trifluoroethyl)telrahydro-2H-pyran-4-yl]-L-phenylalaninamide] as the molecule, how does the EC50 read?
Answer: The EC50 was 19 nM.

Question: With `COC(=O)N[C@H](C(=O)Nc1cccc(F)c1CCC1CNC2CCCS(=O)(=O)N1C2)[C@@H](c1ccc(F)cc1)c1ccc(C(F)(F)F)cc1` (stereo partly drawn) [Example 224, Methyl [(1S)-2-({2-[2-(2,2-dioxido-2-thia-1,7-diazabicyclo[4.3.1]dec-9-yl)ethyl]-3-fluorophenyl}amino)-1-{(R)-(4-fluorophenyl)[4-(trifluoromethyl)phenyl]methyl}-2-oxoethyl]carbamate] as the molecule, how does the EC50 read?
Answer: Its EC50 is 5.7 nM.

Question: With `C[C@@H]1CC([C@H](c2ccc(F)cc2)[C@H](N)C(=O)Nc2cccc(C(F)(F)F)c2CC[C@H]2CN[C@@H]3CCCS(=O)(=O)N2C3)C[C@H](C)O1` (stereo partly drawn) [Example 204, (βR)-β-[(2R,6S)-2,6-dimethyltetrahydro-2H-pyran-4-yl]-N-[2-{2-[(6R,9S)-2,2-dioxido-2-thia-1,7-diazabicyclo[4.3.1]dec-9-yl]ethyl}-3-(trifluoromethyl)phenyl]-4-fluoro-L-phenylalaninamide] as the molecule, how does the EC50 read?
Answer: The EC50 was 230 nM.

Question: For `N[C@H](C(=O)Nc1cccc(F)c1CC[C@H]1CN[C@@H]2CCCS(=O)(=O)N1C2)[C@@H](c1ccc(Cl)cc1)c1nc(C(F)(F)F)cs1` [Example 264, (βR)-4-chloro-N-(2-{2-[(6R,9S)-2,2-dioxido-2-thia-1,7-diazabicyclo[4.3.1]dec-9-yl]ethyl}-3-fluorophenyl)-β-[4-(trifluoromethyl)-1,3-thiazol-2-yl]-L-phenylalaninamide], which EC50 is on record?
Answer: Its EC50 is 6.9 nM.

Question: Which EC50 does the source give for `C[C@@H]1C[C@](c2ccc(Cl)cc2)([C@H](N)C(=O)N[C@H]2CCCC[C@@H]2CC[C@H]2CN[C@@H]3CCCS(=O)(=O)N2C3)C[C@H](C)O1` [Example 170, (2S)-2-amino-2-[(2R,4r,6S)-4-(4-chlorophenyl)-2,6-dimethyltetrahydro-2H-pyran-4-yl]-N-[(1S,2R)-2-{2-[(6R,9S)-2,2-dioxido-2-thia-1,7-diazabicyclo[4.3.1]dec-9-yl]ethyl}cyclohexyl]ethanamide] here?
Answer: Its EC50 is 230 nM.

Question: For `COc1ccc([C@H](c2ccc(Cl)cc2)[C@H](N)C(=O)N[C@H]2CCCC[C@@H]2CC[C@H]2CN[C@@H]3CCCS(=O)(=O)N2C3)cn1` [Example 155, (βS)-4-chloro-N-[(1S,2R)-2-{2-[(6R,9S)-2,2-dioxido-2-thia-1,7-diazabicyclo[4.3.1]dec-9-yl]ethyl}cyclohexyl]-β-(6-methoxypyridin-3-yl)-L-phenylalaninamide], which EC50 is on record?
Answer: Its EC50 is 600 nM.

Question: With `COC(=O)N[C@H](C(=O)Nc1cccc(F)c1CC[C@H]1CN[C@@H]2CCCS(=O)(=O)N1C2)[C@@H](c1ccc(F)cc1)[C@H]1C[C@@H](OC)C1` [Example 105, methyl [(1S)-2-[(2-{2-[(6R,9S)-2,2-dioxido-2-thia-1,7-diazabicyclo[4.3.1]dec-9-yl]ethyl}-3-fluorophenyl)amino]-1-{(R)-(4-fluorophenyl)[(1s,3S)-3-methoxycyclobutyl]methyl}-2-oxoethyl]carbamate] as the molecule, how does the EC50 read?
Answer: Its EC50 is 33 nM.

Question: `C[C@@H]1CC([C@H](c2ccc(Cl)cc2)[C@H](N)C(=O)N[C@H]2CCCC[C@@H]2CC[C@H]2CN[C@@H]3CCCS(=O)(=O)N2C3)C[C@H](C)O1` (stereo partly drawn) [Example 162, (βR)-4-chloro-β-[(2R,6S)-2,6-dimethyltetrahydro-2H-pyran-4-yl]-N-[(1S,2R)-2-{2-[(6R,9S)-2,2-dioxido-2-thia-1,7-diazabicyclo[4.3.1]dec-9-yl]ethyl}cyclohexyl]-L-phenylalaninamide] was tested. Which EC50 did it give?
Answer: Its EC50 is 37 nM.

Question: For `COC(=O)N[C@H](C(=O)Nc1cccc(F)c1CC[C@H]1CN[C@@H]2CCCS(=O)(=O)N1C2)[C@@H](c1ccc(Cl)cc1)c1csc(C(F)(F)F)n1` [Example 252, methyl {(1S,2R)-2-(4-chlorophenyl)-1-[(2-{2-[(6R,9S)-2,2-dioxido-2-thia-1,7-diazabicyclo[4.3.1]dec-9-yl]ethyl}-3-fluorophenyl)carbamoyl]-2-[2-(trifluoromethyl)-1,3-thiazol-4-yl]ethyl}carbamate], which EC50 is on record?
Answer: Its EC50 is 17 nM.

Question: With `N[C@H](C(=O)Nc1cc(F)cc(F)c1CC[C@H]1CN[C@@H]2CCCS(=O)(=O)N1C2)[C@@H](c1ccc(Cl)cc1)C1CCOCC1` [Example 143, (βR)-4-chloro-N-(2-{2-[(6R,9S)-2,2-dioxido-2-thia-1,7-diazabicyclo[4.3.1]dec-9-yl]ethyl}-3,5-difluorophenyl)-β-(tetrahydro-2H-pyran-4-yl)-L-phenylalaninamide] as the molecule, how does the EC50 read?
Answer: The EC50 was 77 nM.

Question: `COC(=O)N[C@H](C(=O)Nc1cccc(F)c1CCC1CNC2CCCS(=O)(=O)N1C2)[C@H](c1ccnc(OC)c1)c1ccc(Cl)c(F)c1` (stereo partly drawn) [Example 69, methyl [(1S,2R)-2-(4-chloro-3-fluorophenyl)-1-({2-[2-(2,2-dioxido-2-thia-1,7-diazabicyclo[4.3.1]dec-9-yl)ethyl]-3-fluorophenyl}carbamoyl)-2-(2-methoxypyridin-4-yl)ethyl]carbamate] was tested. Which EC50 did it give?
Answer: The EC50 was 13 nM.

Question: How did the EC50 turn out when `CC1(OC(=O)N2CCC([C@H](c3ccc(Cl)cc3)[C@H](N)C(=O)N[C@H]3CCC[C@@H]3CC[C@H]3CN[C@@H]4CCCS(=O)(=O)N3C4)CC2)CC1` [Example 208, 1-methylcyclopropyl 4-[(1R,2S)-2-amino-1-(4-chlorophenyl)-3-{[(1S,2R)-2-{2-[(6R,9S)-2,2-dioxido-2-thia-1,7-diazabicyclo[4.3.1]dec-9-yl]ethyl}cyclopentyl]amino}-3-oxopropyl]piperidine-1-carboxylate] was run?
Answer: The EC50 was 100 nM.

Question: `N[C@H](C(=O)Nc1cccc(F)c1CCC1CNC2CCCS(=O)(=O)N1C2)[C@@H](c1ccc(F)cc1)c1cccc(C2CC2)c1` (stereo partly drawn) [Example 51, (βS)-3-cyclopropyl-N-{2-[2-(2,2-dioxido-2-thia-1,7-diazabicyclo[4.3.1]dec-9-yl)ethyl]-3-fluorophenyl}-β-(4-fluorophenyl)-L-phenylalaninamide] was tested. Which EC50 did it give?
Answer: The EC50 was 20 nM.

same assay, conditions: inflection point (IP) of viral growth inhibition; MT4-GFP cells infected with HIV-1 H9IIIB; 50% normal human serum; mean of at least two independent experiments; read-out: Cell Based IP (50% NHS)

Question: With `COC(=O)N[C@H](C(=O)Nc1cccc(F)c1CC[C@H]1CN[C@@H]2CCCS(=O)(=O)N1C2)[C@@H](c1ccc(Cl)cc1)C1C[C@@H](C)O[C@@H](C)C1` (stereo partly drawn) [Example 120, methyl {(1S,2R)-2-(4-chlorophenyl)-2-[(2R,4r,6S)-2,6-dimethyltetrahydro-2H-pyran-4-yl]-1-[(2-{2-[(6R,9S)-2,2-dioxido-2-thia-1,7-diazabicyclo[4.3.1]dec-9-yl]ethyl}-3-fluorophenyl)carbamoyl]ethyl}carbamate] as the molecule, how does the EC50 read?
Answer: The EC50 was 6.2 nM.
